# In PMC6199744, “Development of Chemical Proteomics for the Folateome and Analysis of the Kinetoplastid Folateome” (ACS Infectious Diseases, 2018):
# Test system: L. major lysate proteins
# Assay: Multitargeted bead mixture chemoproteomics, single concentration competition, proteome-wide
# Type: binding
smiles,measurement,setting,value
NCCOCCOCC(=O)Nc1nc2ncc(CNc3ccc(C(=O)NC(CCC(=O)O)C(=O)O)cc3)nc2c(=O)[nH]1 (stereo not shown) [compound 6],fold change,"protein LMJF.35.0420 40S RIBOSOMAL PROTEIN S3A, PUTATIVE, vehicle control = 1",1.15
same,fold change relative to vehicle control,"protein LMJF.35.1220, SHORT CHAIN DEHYDROGENASE, PUTATIVE",1.09
same,fold change relative to vehicle control,"protein LMJF.35.1380, MIT[…], BETA SUBUNIT, PUTATIVE",1.08
same,fold change vs vehicle control,"protein LMJF.35.1830 HYPOTHETICAL PROTEIN, CONSERVED",0.93
same,fold change vs vehicle control,protein LMJF.35.3340 6-phosphogluconate dehydrogenase,0.99
same,fold change,"protein LMJF.35.3700 GIM5A PROTEIN, PUTATIVE,GLYCOSOMAL MEMBRANE PROTEIN, vehicle control = 1",0.99
same,fold change vs vehicle control,"protein LMJF.35.3760 60S RIBOSOMAL PROTEIN L27A/L29, PUTATIVE",0.97
same,fold change relative to vehicle control,"protein LMJF.35.3840, […] 2 SUBUNIT, PUTATIVE",1.14
same,fold change vs vehicle control,"protein LMJF.35.3860 T-COMPLEX PROTEIN 1, ETA SUBUNIT, PUTATIVE",1
same,fold change,"protein LMJF.35.4420 MIT[…] TRANSPORTER, PUTATIVE, vehicle control = 1",1.05
same,fold change relative to vehicle control,"protein LMJF.35.4880, HY[…], CONSERVED (TPR repeat, putative)",1.34
same,fold change relative to vehicle control,"protein LMJF.35.5330, ISOPENTENYL-D[…]-ISOMERASE, PUTATIVE",1.14
same,fold change relative to vehicle control,"protein LMJF.36.0070, STRESS-INDUCIBLE PROTEIN STI1 HOMOLOG",1.56
same,fold change,"protein LMJF.36.0480 HYPOTHETICAL PROTEIN, CONSERVED, vehicle control = 1",0.98
same,fold change vs vehicle control,"protein LMJF.36.0620 HYPOTHETICAL PROTEIN, CONSERVED",0.81
same,fold change vs vehicle control,"protein LMJF.36.0930 40S RIBOSOMAL PROTEIN S18, PUTATIVE",1.15
same,fold change vs vehicle control,"protein LMJF.36.0990 40S RIBOSOMAL PROTEIN S10, PUTATIVE",0.99
same,fold change,"protein LMJF.36.1140 SHORT CHAIN 3-HYDROXYACYL-COA DEHYDROGENASE, PUTATIVE, vehicle control = 1",0.82
same,fold change relative to vehicle control,"protein LMJF.36.1260, FRUCTOSE-1,6-BI[…]",1.05
same,fold change,"protein LMJF.36.1340 N-ACETYLTRANSFERASE SUBUNIT NAT1, PUTATIVE, vehicle control = 1",0.91
same,fold change vs vehicle control,"protein LMJF.36.1650 […] 5 SUBUNIT, PUTATIVE",1.03
same,fold change relative to vehicle control,"protein LMJF.36.2380, STEROL 24-C-METHYLTRANSFERASE, PUTATIVE",1
same,fold change relative to vehicle control,"protein LMJF.36.2660, DIHYDROLIPOAMIDE ACETYLTRANSFERASE PRECURSOR, PUTATIVE",1
same,fold change vs vehicle control,"protein LMJF.36.2950 SUCCINYL-COA LIGASE GDP-FORMING] BETA-CHAIN, PUTATIVE",1.06
same,fold change vs vehicle control,protein LMJF.36.3210 14-3-3 PROTEIN-LIKE PROTEIN,0.97
same,fold change vs vehicle control,protein LMJF.36.3410 SHORT CHAIN DEHYDROGENASE-LIKE PROTEIN,1.22
same,fold change,"protein LMJF.36.3460 HYPOTHETICAL PROTEIN, CONSERVED (NIPSNAP, putative), vehicle control = 1",1.1
same,fold change,"protein LMJF.36.3580 HYPOTHETICAL PROTEIN, CONSERVED (Protein of unknown function (DUF2009), putative), vehicle control = 1",0.92
same,fold change,"protein LMJF.36.3750 40S RIBOSOMAL PROTEIN S27-1, PUTATIVE, vehicle control = 1",0.73
same,fold change vs vehicle control,"protein LMJF.36.5010 40S RIBOSOMAL PROTEIN SA, PUTATIVE",1.07
same,fold change vs vehicle control,"protein LMJF.36.5130 HY[…], CONSERVED",1.09
same,fold change vs vehicle control,"protein LMJF.36.5150 HY[…], CONSERVED",1.01
same,fold change relative to vehicle control,"protein LMJF.36.5380, NADH DEHYDROGENASE, PUTATIVE",0.94
same,fold change vs vehicle control,"protein LMJF.36.5390 PHOSPHORIBOSYLPYROPHOSPHATE SYNTHETASE, PUTATIVE",0.99
same,fold change vs vehicle control,"protein LMJF.36.5620 ISOLEUCYL-TRNA SYNTHETASE, PUTATIVE",1.03
same,fold change,"protein LMJF.36.6430 PROTEIN TRANSPORT PROTEIN SEC23-LIKE PROTEIN, vehicle control = 1",0.83
same,fold change vs vehicle control,"protein LMJF.36.6760 HY[…], CONSERVED",1.01
same,fold change relative to vehicle control,"protein LMJF.[…], MIT[…] BETA SUBUNIT, PUTATIVE",0.95
same,fold change relative to vehicle control,"protein LMJF.[…], POLY(A) EXPORT PROTEIN, PUTATIVE",1.14
same,fold change,"vs vehicle control, protein LINJ.20.0630 CYTIDINE TR[…], PUTATIVE,CTP SYNTHASE, PUTATIVE",1.07
same,fold change,"vs vehicle control, protein LINJ.20.1390 COATOMER BETA SUBUNIT, PUTATIVE",0.82
same,fold change,"vs vehicle control, protein LMJF.05.1140 VACUOLAR ATPASE SUBUNIT-LIKE PROTEIN",0.91
same,fold change,"vs vehicle control, protein LMJF.07.1090 DELTA-5 FATTY ACID DESATURASE",1
same,fold change,"vs vehicle control, protein LMJF.09.0220 HYPOTHETICAL PROTEIN, CONSERVED",0.97
same,fold change,"vs vehicle control, protein LMJF.11.1030 HYPOTHETICAL PROTEIN, CONSERVED",0.98
same,fold change,"vs vehicle control, protein LMJF.14.0640 FATTY ACID ELONGASE, PUTATIVE",0.92
same,fold change,"vs vehicle control, protein LMJF.14.0705 FATTY ACID ELONGASE, PUTATIVE",0.88
same,fold change,"vs vehicle control, protein LMJF.14.1120 KINESIN K39, PUTATIVE",0.71
same,fold change,"vs vehicle control, protein LMJF.16.1610 PROHIBITIN",1.16
same,fold change,"vs vehicle control, protein LMJF.17.0010 HYPOTHETICAL PROTEIN, CONSERVED",0.97
same,fold change,"vs vehicle control, protein LMJF.18.1130 RAS-RELATED PROTEIN RAB-5, PUTATIVE",0.75
same,fold change,"vs vehicle control, protein LMJF.19.1420 CYSTEINE PEPTIDASE A (CPA)",0.86
same,fold change,"vs vehicle control, protein LMJF.21.0280 HY[…], CONSERVED",0.84
same,fold change,"vs vehicle control, protein LMJF.22.1560 40S RIBOSOMAL PROTEIN L14, PUTATIVE",0.78
same,fold change,"vs vehicle control, protein LMJF.23.1220 T-COMPLEX PROTEIN 1, GAMMA SUBUNIT, PUTATIVE",1.06
same,fold change,"vs vehicle control, protein LMJF.24.0370 ASPARTATE AMINOTRANSFERASE, PUTATIVE",1.14
same,fold change,"vs vehicle control, protein LMJF.25.1770 ENOYL-COA REDUCTASE, PUTATIVE",1.08
same,fold change,"vs vehicle control, protein LMJF.26.0170 60S RIBOSOMAL PROTEIN L7, PUTATIVE",0.82
same,fold change,"vs vehicle control, protein LMJF.26.1550 TRI[…] ALPHA SUBUNIT, MIT[…]-LIKE PROTEIN",1.11
same,fold change,"vs vehicle control, protein LMJF.26.1610 PROLINE OXIDASE, MIT[…]-LIKE PROTEIN",1.02
same,fold change,"vs vehicle control, protein LMJF.28.1950 X-PRO, DIPEPTIDYL-PEPTIDASE,SERINE PEPTIDASE, CLAN SC, FAMILY S15, PUTATIVE",0.94
same,fold change,"vs vehicle control, protein LMJF.31.1070 BIOTIN/LIPOATE PROTEIN LIGASE-LIKE PROTEIN",0.89
same,fold change,"vs vehicle control, protein LMJF.32.1370 HYPOTHETICAL PROTEIN, CONSERVED",0.94
same,fold change,"vs vehicle control, protein LMJF.34.0490 IMPORTIN BETA-1 SUBUNIT, PUTATIVE",0.96
same,fold change,"vs vehicle control, protein LMJF.34.4060 UBIQUITIN HYDROLASE, PUTATIVE,CYSTEINE PEPTIDASE, CLAN CA, FAMILY C19, PUTATIVE",0.85
same,fold change,"vs vehicle control, protein LMJF.36.1600 […] 1 SUBUNIT, PUTATIVE",0.96
same,fold change,"vs vehicle control, protein LMJF.[…] RIBOSOMAL PROTEIN S7, PUTATIVE",1.2
